This note sets out measurements from patent US20230348401A1, “Inhibitors of Glucose-6-phosphate Dehydrogenase and Uses Thereof” (The Trustees of Princeton University, priority 2020, published 2023).

This assay relates to mouse neutrophils. The experiment in a line: Neutrophil oxidative burst assay (mouse). The format is cell-based. The settings on record: PMA, 50 µM. The method, then: Murine neutrophils were isolated from 8-12-week old C56BL/6 mice. Mice were bred and maintained according to the University of Wisconsin Institutional Animal Care and Use Committee (Protocol No. M006219). Mice were euthanized by cervical dislocation, and bone marrow cells were harvested from femur and tibia within 30 minutes. Cell suspensions were passed through a 70-µm cell strainer. Neutrophils were prepared using a negative selection kit (EasySep Mouse Neutrophil Enrichment Kit, Stem Cell Technologies), following the manufacturer’s instructions. Cells were cultured in RPMI 1640 media supplemented with 10% heat-inactivated FBS, 100 U/ml penicillin, 100 µg/ml streptomycin, 5 mM HEPES, and 2 mM EDTA. To stimulate neutrophils, 100 nM phorbol 12-myristate 13-acetate (PMA) (Cayman Chemical) was added to the media; metabolites were extracted after 30 minutes of stimulation.
Suspended neutrophils were plated in culture wells pre-coated with CELL-TAK™ (Corning), spun at 200 × g for 1 minute with minimal acceleration/deceleration, and then incubated for 1 hour at 37° C. Murine neutrophils were plated at 2×10^5 cells/well in RPMI 1640 media without sodium bicarbonate. […] Oxidative burst was stimulated with PMA (100 nM, Cayman Chemical); oxygen consumption rate was measured using the XF-96e extracellular flux analyzer (Seahorse Bioscience).

For the compound `N#Cc1cc(Nc2ncc3c(n2)CCCCC3=O)cs1` [Compound 2, 4-([5-oxo-6H,7H,8H,9H-cyclohepta[d]pyrimidin-2-yl]amino)thiophene-2-carbonitrile], the “oxidative burst (oxygen consumption rate)” value is “decreased oxidative burst”.
